Data reported in patent US20250051319A1 (AUGUSTINE THERAPEUTICS, priority 2021, published 2025).

Legend:
[1] = biological target: human full-length recombinant HDAC6 (Homo sapiens (Human), UniProt Q9UBN7); test: HDAC6 enzymatic activity assay (alternative protocol, Ac-Gly-Ala-Lys(Ac)-AMC); format: biochemical; details: 5 nM enzyme, read-out: HDAC6 biochem
Method: (§1) Inhibition of HDAC enzymes was performed in 384-well plate format using human full-length recombinant HDAC1 and HDAC6, isolated from a baculovirus expression system in Sf9 cells (BPS Bioscience). Reaction buffer for HDAC1 contained 50 mM Tris HCl pH 8.0, 137 mM NaCl, 2.7 mM KCl, 1 mM MgCl2, 0.1 mg/mL BSA, and reaction buffer for HDAC6 contained 50 mM Tris/HCl, pH 8.0, 137 mM NaCl, 2.7 mM KCl, 250 μM EDTA, 1 mM DTT, 0.1 mg/mL BSA. Compounds (dissolved in 100% DMSO) or DMSO (vehicle) were diluted in assay buffer at 3× final assay concentration and then added to assay plates. SAHA ([…]) was used as a positive control. 3× final assay concentration of recombinant enzymes (final assay concentration is 4 nM and 5 nM for HDAC1 and HDAC6, respectively) were preincubated for 10 minutes with test compounds at room temperature. Afterwards, 3× final assay concentration of an acetylated fluorogenic peptide (Ac-Gly-Ala-Lys(Ac))-AMC, Bachem; final assay concentration is 12 µM and 40 µM for HDAC1 and HDAC6, respectively) was added to assay plate, allowing deacetylase reactions to incubate for 60 minutes at room temperature. The developer reagent containing 5 μM SAHA and 50 μM trypsin was added to stop the deacetylase reaction and generate AMNC-fluorescence. 15 minutes after addition of developer reagent, endpoint measurements were taken using CLARIOstar (BMG Labtech) plate reader (excitation/emission: 360/450). Fluorescence signals were normalized for each plate using GraphPad Prism software: reaction HDAC-substrate in presence of DMSO was set to 100% while reaction HDAC-substrate in presence of 10 μM SAHA was set to 0%.

[2] = biological target: catalytic domain 2 (CD2) of HDAC6 (Homo sapiens (Human), UniProt Q9UBN7); test: Cellular target engagement assay - NanoBRET; format: cell-based; details: NanoLuc-HDAC6(CD2) in HEK293T cells, 2 hours, read-out: IC50 (HDAC6(CD2) interaction)
[3] = biological target: human full-length recombinant HDAC1 (Homo sapiens (Human), UniProt Q13547); test: HDAC1 enzymatic activity assay (alternative protocol, Ac-Gly-Ala-Lys(Ac)-AMC); format: biochemical; details: 4 nM enzyme, read-out: HDAC1 biochem
Method: as §1

Sequence of human full-length recombinant HDAC6 (Q9UBN7 whole entry): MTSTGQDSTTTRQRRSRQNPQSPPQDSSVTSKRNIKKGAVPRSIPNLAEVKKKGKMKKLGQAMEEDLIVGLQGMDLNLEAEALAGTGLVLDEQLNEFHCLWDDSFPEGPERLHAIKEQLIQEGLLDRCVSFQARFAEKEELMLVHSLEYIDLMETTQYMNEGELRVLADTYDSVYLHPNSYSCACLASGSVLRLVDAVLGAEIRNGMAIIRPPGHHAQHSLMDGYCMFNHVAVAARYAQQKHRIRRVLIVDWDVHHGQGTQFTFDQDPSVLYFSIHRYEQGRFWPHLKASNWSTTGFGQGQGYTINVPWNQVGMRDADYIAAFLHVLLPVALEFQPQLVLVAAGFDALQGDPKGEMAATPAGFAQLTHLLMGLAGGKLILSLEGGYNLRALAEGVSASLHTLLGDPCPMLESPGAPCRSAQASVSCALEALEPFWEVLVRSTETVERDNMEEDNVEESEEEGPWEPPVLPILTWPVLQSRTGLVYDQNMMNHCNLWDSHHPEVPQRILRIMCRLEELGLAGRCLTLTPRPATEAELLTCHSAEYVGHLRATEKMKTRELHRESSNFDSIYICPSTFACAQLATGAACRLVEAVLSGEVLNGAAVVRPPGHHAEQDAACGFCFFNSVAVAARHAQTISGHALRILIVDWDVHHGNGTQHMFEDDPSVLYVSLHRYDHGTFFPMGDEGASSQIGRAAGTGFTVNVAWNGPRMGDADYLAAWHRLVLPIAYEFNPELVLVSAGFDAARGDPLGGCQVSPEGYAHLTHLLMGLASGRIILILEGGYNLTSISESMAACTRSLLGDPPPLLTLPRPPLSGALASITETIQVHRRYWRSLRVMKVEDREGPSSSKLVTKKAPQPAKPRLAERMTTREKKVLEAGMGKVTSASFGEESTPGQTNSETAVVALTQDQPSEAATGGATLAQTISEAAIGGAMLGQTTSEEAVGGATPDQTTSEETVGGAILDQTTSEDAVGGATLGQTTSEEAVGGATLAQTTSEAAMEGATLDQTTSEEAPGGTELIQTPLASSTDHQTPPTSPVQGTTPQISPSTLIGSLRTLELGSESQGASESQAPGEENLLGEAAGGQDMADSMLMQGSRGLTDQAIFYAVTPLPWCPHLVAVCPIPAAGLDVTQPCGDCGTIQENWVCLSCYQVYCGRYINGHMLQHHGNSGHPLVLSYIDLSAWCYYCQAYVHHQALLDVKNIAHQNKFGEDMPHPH
Sequence of human full-length recombinant HDAC1 (Q13547 whole entry): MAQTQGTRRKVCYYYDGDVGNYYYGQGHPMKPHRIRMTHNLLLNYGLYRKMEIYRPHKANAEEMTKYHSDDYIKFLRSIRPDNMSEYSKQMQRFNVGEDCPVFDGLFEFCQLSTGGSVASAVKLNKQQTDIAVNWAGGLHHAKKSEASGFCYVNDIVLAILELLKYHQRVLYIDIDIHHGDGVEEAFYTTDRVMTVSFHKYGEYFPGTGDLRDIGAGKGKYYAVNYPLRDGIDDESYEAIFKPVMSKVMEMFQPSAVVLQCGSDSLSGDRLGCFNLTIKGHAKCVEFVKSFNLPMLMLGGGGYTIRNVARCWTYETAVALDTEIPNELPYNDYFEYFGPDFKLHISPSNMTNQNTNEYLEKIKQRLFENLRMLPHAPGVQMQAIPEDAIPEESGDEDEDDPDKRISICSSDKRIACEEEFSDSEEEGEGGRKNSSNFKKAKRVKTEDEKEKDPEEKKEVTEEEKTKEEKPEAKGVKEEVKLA
Sequence of catalytic domain 2 (CD2) of HDAC6 (Q9UBN7 482-800): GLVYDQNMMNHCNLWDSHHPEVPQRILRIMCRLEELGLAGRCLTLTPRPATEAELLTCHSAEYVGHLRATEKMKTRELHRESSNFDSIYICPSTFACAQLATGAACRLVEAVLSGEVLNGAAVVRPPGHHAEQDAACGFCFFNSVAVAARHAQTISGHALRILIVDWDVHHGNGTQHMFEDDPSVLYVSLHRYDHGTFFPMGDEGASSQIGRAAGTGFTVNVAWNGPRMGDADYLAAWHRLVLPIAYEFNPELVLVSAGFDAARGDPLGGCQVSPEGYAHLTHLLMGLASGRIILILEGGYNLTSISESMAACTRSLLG

Row | Structure (SMILES) | IC50 [1] | IC50 [2] | IC50 [3]
1 | Cn1ncc2c(SCC(=O)c3ccc(CNC(=O)Cc4ccccn4)s3)ncnc21 [Compound 55, N-((5-(2-((1-methyl-1H-pyrazolo[3,4-d]pyrimidin-4-yl)thio)acetyl)thiophen-2-yl)methyl)-2-(160yrrolid-2-yl)acetamide] | ≤ 100 nM | 500 to 1000 nM | > 10000 nM
2 | Cn1ncc2c(SCC(=O)c3ccc(CNC(=O)Cc4cccnc4)s3)ncnc21 [Compound 56, N-((5-(2-((1-methyl-1H-pyrazolo[3,4-d]pyrimidin-4-yl)thio)acetyl)thiophen-2-yl)methyl)-2-(160yrrolid-3-yl)acetamide] | ≤ 100 nM | ≤ 100 nM | > 10000 nM
3 | Cn1ncc2c(SCC(=O)c3ccc(CNC(=O)Cc4ccncc4)s3)ncnc21 [Compound 57, N-((5-(2-((1-methyl-1H-pyrazolo[3,4-d]pyrimidin-4-yl)thio)acetyl)thiophen-2-yl)methyl)-2-(160yrrolid-4-yl)acetamide] | ≤ 100 nM | 100 to 500 nM | > 10000 nM
4 | COCC(=O)NCc1ccc(C(=O)CSc2ncnc3c2cnn3C)s1 [Compound 58, 2-methoxy-N-((5-(2-((1-methyl-1H-pyrazolo[3,4-d]pyrimidin-4-yl)thio)acetyl)thiophen-2-yl)methyl)acetamide] | ≤ 100 nM | 1000 to 10000 nM | > 10000 nM
5 | Cn1ncc2c(SCC(=O)c3ccc(CNC(=O)CO)s3)ncnc21 [Compound 59, 2-hydroxy-N-((5-(2-((1-methyl-1H-pyrazolo[3,4-d]pyrimidin-4-yl)thio)acetyl)thiophen-2-yl)methyl)acetamide] | ≤ 100 nM | 100 to 500 nM | > 10000 nM
6 | Cn1ncc2c(SCC(=O)c3ccc(CNS(C)(=O)=O)s3)ncnc21 [Compound 87] | ≤ 100 nM | 100 to 500 nM | > 10000 nM
7 | Cn1ncc2c(SCC(=O)c3ccc(CNS(=O)(=O)Cc4ccccc4)s3)ncnc21 [Compound 90, N-((5-(2-((1-methyl-1H-pyrazolo[3,4-d]pyrimidin-4-yl)thio)acetyl)thiophen-2-yl)methyl)-1-phenylmethanesulfonamide] | ≤ 100 nM | 1000 to 10000 nM | > 10000 nM
8 | CN(Cc1ccc(C(=O)CSc2ncnc3c2cnn3C)s1)S(=O)(=O)C1CC1 [Compound 91, N-methyl-N-((5-(2-((1-methyl-1H-pyrazolo[3,4-d]pyrimidin-4-yl)thio)acetyl)thiophen-2-yl)methyl)cyclopropanesulfonamide] | ≤ 100 nM | 100 to 500 nM | > 10000 nM
9 | CN(Cc1ccc(C(=O)CSc2ncnc3c2cnn3C)s1)S(=O)(=O)Cc1ccncc1 [Compound 92, N-methyl-N-((5-(2-((1-methyl-1H-pyrazolo[3,4-d]pyrimidin-4-yl)thio)acetyl)thiophen-2-yl)methyl)-1-(162yrrolid-4-yl)methanesulfonamide] | ≤ 100 nM | 100 to 500 nM | 1000 to 10000 nM
10 | Cc1nc(SCC(=O)c2ccc(CNS(=O)(=O)CC3CC3)s2)c2ccccc2n1 [Compound 93, 1-cyclopropyl-N-((5-(2-((2-methylquinazolin-4-yl)thio)acetyl)thiophen-2-yl)methyl)methanesulfonamide] | ≤ 100 nM | 100 to 500 nM | > 10000 nM
11 | Cc1nc(SCC(=O)c2ccc(CCNS(C)(=O)=O)s2)c2ccccc2n1 [Compound 94, N-(2-(5-(2-((2-methylquinazolin-4-yl)thio)acetyl)thiophen-2-yl)ethyl)methanesulfonamide] | ≤ 100 nM | 100 to 500 nM | > 10000 nM
12 | CS(=O)(=O)N1CCC(c2ccc(C(=O)CSc3nc(C(F)(F)F)nc4ccccc34)s2)C1 (stereo not drawn) [Compound 95, 1-(5-(1-(methylsulfonyl)163yrrolidine-3-yl)thiophen-2-yl)-2-((2-(trifluoromethyl)quinazolin-4-yl)thio)ethanone] | ≤ 100 nM | 100 to 500 nM | > 10000 nM
13 | Cc1nc(SCC(=O)c2ccc(CNS(C)(=O)=O)s2)c2ccccc2n1 [Compound 97, N-((5-(2-((2-methylquinazolin-4-yl)thio)acetyl)thiophen-2-yl)methyl)methanesulfonamide] | ≤ 100 nM | 100 to 500 nM | 1000 to 10000 nM
14 | CS(=O)(=O)NCCc1ccc(C(=O)CSc2nc(C(F)(F)F)nc3ccccc23)s1 [Compound 98, N-(2-(5-(2-((2-(trifluoromethyl)quinazolin-4-yl)thio)acetyl)thiophen-2-yl)ethyl)methanesulfonamide] | ≤ 100 nM | ≤ 100 nM | > 10000 nM
15 | CC(C)c1nc(SCC(=O)c2ccc(CNC(=O)C(C)(C)C)s2)c2ccccc2n1 [Example 1, N-((5-(2-((2-isopropylquinazolin-4-yl)thio)acetyl)thiophen-2-yl)methyl)pivalamide] | ≤ 100 nM | 100 to 500 nM | > 10000 nM
16 | CC(C)(C)C(=O)NCc1ccc(C(=O)CSc2nc(C3CC3)nc3ccccc23)s1 [Example 2, N-((5-(2-((2-cyclopropylquinazolin-4-yl)thio)acetyl)thiophen-2-yl)methyl)pivalamide] | ≤ 100 nM | 100 to 500 nM | > 10000 nM
17 | Cc1nc(SCC(=O)c2ccc(CNC(=O)C(C)(C)C)s2)c2ccccc2n1 [Example 3, N-((5-(2-((2-methylquinazolin-4-yl)thio)acetyl)thiophen-2-yl)methyl)pivalamide] | ≤ 100 nM | ≤ 100 nM | 1000 to 10000 nM
18 | COCc1nc(SCC(=O)c2ccc(CNC(=O)C(C)(C)C)s2)c2ccccc2n1 [Example 4, N-((5-(2-((2-(methoxymethyl)quinazolin-4-yl)thio)acetyl)thiophen-2-yl)methyl)pivalamide] | ≤ 100 nM | 500 to 1000 nM | > 10000 nM
19 | Cc1nc(SCC(=O)c2ccc(CNC(=O)C(C)(C)C)s2)c2cnn(C)c2n1 [Example 5, N-((5-(2-((1,6-dimethyl-1H-pyrazolo[3,4-d]pyrimidin-4-yl)thio)acetyl)thiophen-2-yl)methyl)pivalamide] | ≤ 100 nM | 500 to 1000 nM | > 10000 nM
20 | Cn1ncc2c(SCC(=O)c3ccc(CNC(=O)C(C)(C)C)s3)nc(C3CC3)nc21 [Example 6, N-((5-(2-((6-cyclopropyl-1-methyl-1H-pyrazolo[3,4-d]pyrimidin-4-yl)thio)acetyl)thiophen-2-yl)methyl)pivalamide] | ≤ 100 nM | 100 to 500 nM | > 10000 nM
21 | Cc1nc(SCC(=O)c2ccc(CNC(=O)C(C)(C)C)s2)c2cccnc2n1 [Example 7, N-((5-(2-((2-methylpyrido[2,3-d]pyrimidin-4-yl)thio)acetyl)thiophen-2-yl)methyl)pivalamide] | ≤ 100 nM | ≤ 100 nM | 1000 to 10000 nM
22 | Cn1ncc2c(SCC(=O)c3ccc(CNC(=O)Cc4ccccc4)s3)ncnc21 [Example 32, N-((5-(2-((1-methyl-1H-pyrazolo[3,4-d]pyrimidin-4-yl)thio)acetyl)thiophen-2-yl)methyl)-2-phenylacetamide] | ≤ 100 nM |  | > 10000 nM
23 | O=C(CO)NCc1ccc(C(=O)CSc2nccn3cncc23)s1 [Example 181, 2-hydroxy-N-((5-(2-(imidazo[1,5-a]pyrazin-8-ylthio)acetyl)thiophen-2-yl)methyl)acetamide] |  | 100 to 500 nM | 
24 | O=C(CO)NCc1ccc(C(=O)CSc2nccn3nccc23)s1 [Example 182, 2-hydroxy-N-((5-(2-(pyrazolo[1,5-a]pyrazin-4-ylthio)acetyl)thiophen-2-yl)methyl)acetamide] |  | 1000 to 10000 nM | 
25 | COc1ccc2nc(C)nc(SCC(=O)c3ccc(CNC(=O)N(C)C)s3)c2c1 [Example 189, 3-((5-(2-((6-methoxy-2-methylquinazolin-4-yl)thio)acetyl)thiophen-1-yl)methyl)-1,1-dimethylurea] |  | 100 to 500 nM | 
26 | COc1cnc2nc(C)nc(SCC(=O)c3ccc(CNC(=O)OC(C)(C)C)s3)c2c1 [Example 190, tert-butyl ((5-(2-((6-methoxy-2-methylpyrido[2,3-d]pyrimidin-4-yl)thio)acetyl)thiophen-2-yl)methyl)carbamate] |  | 100 to 500 nM | 
27 | CC(C)(C)C(=O)NCc1ccc(C(=O)CSc2nc(C(F)(F)F)cc3ccccc23)s1 [Example 191, N-((5-(2-((3-(trifluoromethyl)isoquinolin-1-yl)thio)acetyl)thiophen-2-yl)methyl)pivalamide] | 1000 to 10000 nM |  | > 10000 nM
28 | Cn1ncc2c(SCC(=O)c3nnc(CNC(=O)C(C)(C)C)s3)ncnc21 [Example 192, N-((5-(2-(1-methyl-1H-pyrazolo[3,4-d]pyrimidin-4-ylthio)acetyl)-1,3,4-thiadiazol-2-yl)methyl)pivalamide] | 100 to 500 nM |  | 500 to 1000 nM
29 | CC(C)(C)C(=O)NCc1ccc(C(=O)CSc2nnc(C(F)(F)F)c3ccccc23)s1 [Example 195] | ≤ 100 nM |  | > 10000 nM
